Experimental data as given in patent publication US20060229299A1, “5ht2c Receptor antagonists in the treatment of schizophrenia” (priority 2003, published 2006).

Legend:
[1] = tested on: 5-HT2A/D2; experiment: 5-HT2A/D2 receptor affinity ratio; type: binding, human; conditions: Table 2; affinity ratio from data of Table 1
[2] = tested on: 5-HT2C/5-HT2A; experiment: 5-HT2C/5-HT2A receptor affinity ratio; type: binding, human; conditions: Table 2; affinity ratio from data of Table 1
[3] = tested on: 5-HT2C/D2; experiment: 5-HT2C/D2 receptor affinity ratio; type: binding, human; conditions: Table 2; affinity ratio from data of Table 1
[4] = target: 5-HT6 receptor (Rattus norvegicus, UniProt P31388); conditions: cited from earlier work
[5] = target: 5-HT7 receptor (Rattus norvegicus, UniProt P32305); conditions: cited from earlier work
[6] = target: D1 dopamine receptor (Rattus norvegicus, UniProt P18901); conditions: cited from earlier work
[7] = target: T1, D4 dopamine receptor (Rattus norvegicus, UniProt P30729); conditions: cited from earlier work
T1 sequence (P30729 1-387): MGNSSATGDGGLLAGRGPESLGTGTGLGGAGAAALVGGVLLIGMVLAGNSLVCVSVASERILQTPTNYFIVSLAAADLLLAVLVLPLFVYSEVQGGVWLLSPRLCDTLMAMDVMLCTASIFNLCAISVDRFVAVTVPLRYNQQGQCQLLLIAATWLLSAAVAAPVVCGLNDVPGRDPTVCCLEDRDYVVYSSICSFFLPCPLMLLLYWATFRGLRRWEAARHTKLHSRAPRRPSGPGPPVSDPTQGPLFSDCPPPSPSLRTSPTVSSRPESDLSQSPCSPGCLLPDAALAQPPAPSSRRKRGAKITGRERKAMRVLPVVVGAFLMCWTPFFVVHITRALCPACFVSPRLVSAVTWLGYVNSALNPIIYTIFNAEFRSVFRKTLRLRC

[8] = target: M2 muscarinic acetylcholine receptor (Homo sapiens, UniProt P08172); conditions: expressed as KD; cited from earlier work
[9] = target: M3 muscarinic acetylcholine receptor (Homo sapiens, UniProt P20309); conditions: expressed as KD; cited from earlier work
[10] = target: T2, M4 muscarinic acetylcholine receptor (Homo sapiens, UniProt P08173); conditions: expressed as KD; cited from earlier work
T2 sequence (P08173 1-479): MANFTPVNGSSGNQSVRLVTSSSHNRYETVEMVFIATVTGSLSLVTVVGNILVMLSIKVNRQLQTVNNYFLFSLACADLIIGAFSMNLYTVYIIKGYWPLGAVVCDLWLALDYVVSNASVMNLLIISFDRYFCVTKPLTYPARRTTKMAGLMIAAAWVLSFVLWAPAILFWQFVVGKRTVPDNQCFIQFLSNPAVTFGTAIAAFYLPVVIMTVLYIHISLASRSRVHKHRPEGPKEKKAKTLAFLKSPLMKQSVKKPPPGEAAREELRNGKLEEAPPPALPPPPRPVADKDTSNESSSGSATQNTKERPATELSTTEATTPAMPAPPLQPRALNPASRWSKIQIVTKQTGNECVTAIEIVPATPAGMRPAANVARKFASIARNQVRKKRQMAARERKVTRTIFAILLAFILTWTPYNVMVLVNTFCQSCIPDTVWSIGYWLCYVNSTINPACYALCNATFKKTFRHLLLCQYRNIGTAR

[11] = target: T3, M5 muscarinic acetylcholine receptor (Homo sapiens, UniProt P08912); conditions: expressed as KD; cited from earlier work
T3 sequence (P08912 1-532): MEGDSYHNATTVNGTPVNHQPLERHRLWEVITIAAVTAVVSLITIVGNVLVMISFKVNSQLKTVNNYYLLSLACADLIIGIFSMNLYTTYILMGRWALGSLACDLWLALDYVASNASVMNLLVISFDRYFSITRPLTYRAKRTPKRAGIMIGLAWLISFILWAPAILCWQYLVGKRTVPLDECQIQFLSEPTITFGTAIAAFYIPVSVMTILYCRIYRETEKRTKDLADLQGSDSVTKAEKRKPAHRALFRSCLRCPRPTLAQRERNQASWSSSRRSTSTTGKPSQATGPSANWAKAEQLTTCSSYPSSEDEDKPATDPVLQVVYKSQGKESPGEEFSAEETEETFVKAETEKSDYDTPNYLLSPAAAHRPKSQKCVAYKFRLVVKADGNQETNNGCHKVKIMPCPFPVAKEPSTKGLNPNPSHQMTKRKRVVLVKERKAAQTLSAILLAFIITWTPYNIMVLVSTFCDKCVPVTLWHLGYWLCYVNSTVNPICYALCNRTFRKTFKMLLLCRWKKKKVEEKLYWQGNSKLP

[12] = target: M1 muscarinic acetylcholine receptor (Homo sapiens, UniProt P11229); conditions: expressed as KD; cited from earlier work
[13] = tested on: 5-HT2C receptor relative to 5-HT2A and D2 receptors; experiment: Relative 5-HT2C affinity (formula I, sum of 5-HT2C/5-HT2A and 5-HT2C/D2 affinity ratios); conditions: Table 2; sum of affinity ratios from data of Table 1
[14] = target: 5-HT1A receptor (Homo sapiens, UniProt P08908); conditions: cited from earlier work
[15] = target: T4, 5-HT2C receptor (Sus scrofa, UniProt K7GSR7); conditions: pig; cited from earlier work
T4 sequence (K7GSR7 1-457): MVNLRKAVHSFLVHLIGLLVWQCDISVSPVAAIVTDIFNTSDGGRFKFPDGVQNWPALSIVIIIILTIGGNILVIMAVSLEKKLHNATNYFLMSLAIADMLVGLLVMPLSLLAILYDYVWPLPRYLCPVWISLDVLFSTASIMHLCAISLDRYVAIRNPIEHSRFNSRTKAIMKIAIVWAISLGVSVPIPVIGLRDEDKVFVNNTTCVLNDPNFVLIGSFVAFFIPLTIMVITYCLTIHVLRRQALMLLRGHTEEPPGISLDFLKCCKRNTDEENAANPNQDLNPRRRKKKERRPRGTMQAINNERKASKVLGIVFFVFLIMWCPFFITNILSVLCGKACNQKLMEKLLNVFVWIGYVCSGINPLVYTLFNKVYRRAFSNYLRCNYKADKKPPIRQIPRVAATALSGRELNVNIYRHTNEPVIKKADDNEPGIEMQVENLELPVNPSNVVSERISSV

[16] = target: T5, 5-HT3 receptor (Mus musculus, UniProt P23979); conditions: cited from earlier work
T5 sequence (P23979 24-489): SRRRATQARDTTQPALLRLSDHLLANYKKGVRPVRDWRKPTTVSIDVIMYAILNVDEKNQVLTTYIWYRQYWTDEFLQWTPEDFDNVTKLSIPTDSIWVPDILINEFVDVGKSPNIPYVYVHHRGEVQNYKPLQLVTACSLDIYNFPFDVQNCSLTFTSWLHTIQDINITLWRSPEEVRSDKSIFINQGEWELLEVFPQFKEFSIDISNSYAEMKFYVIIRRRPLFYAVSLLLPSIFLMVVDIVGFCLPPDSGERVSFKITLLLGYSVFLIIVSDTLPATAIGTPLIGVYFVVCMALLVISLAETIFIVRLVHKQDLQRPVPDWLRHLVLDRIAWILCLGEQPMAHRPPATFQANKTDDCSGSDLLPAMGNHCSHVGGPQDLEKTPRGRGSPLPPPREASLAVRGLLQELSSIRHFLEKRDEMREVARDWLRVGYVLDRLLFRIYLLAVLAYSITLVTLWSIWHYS

[17] = target: 5-HT7 receptor (Mus musculus, UniProt P32304); conditions: cited from earlier work
[18] = target: D2-S (short form of D2 receptor) (Homo sapiens, UniProt P14416); conditions: cited from earlier work
[19] = target: D2-L (long form of D2 receptor) (Homo sapiens, UniProt P14416); conditions: cited from earlier work
[20] = target: T6, D4 dopamine receptor (Homo sapiens, UniProt P21917); conditions: human; cited from earlier work
T6 sequence (P21917 1-419): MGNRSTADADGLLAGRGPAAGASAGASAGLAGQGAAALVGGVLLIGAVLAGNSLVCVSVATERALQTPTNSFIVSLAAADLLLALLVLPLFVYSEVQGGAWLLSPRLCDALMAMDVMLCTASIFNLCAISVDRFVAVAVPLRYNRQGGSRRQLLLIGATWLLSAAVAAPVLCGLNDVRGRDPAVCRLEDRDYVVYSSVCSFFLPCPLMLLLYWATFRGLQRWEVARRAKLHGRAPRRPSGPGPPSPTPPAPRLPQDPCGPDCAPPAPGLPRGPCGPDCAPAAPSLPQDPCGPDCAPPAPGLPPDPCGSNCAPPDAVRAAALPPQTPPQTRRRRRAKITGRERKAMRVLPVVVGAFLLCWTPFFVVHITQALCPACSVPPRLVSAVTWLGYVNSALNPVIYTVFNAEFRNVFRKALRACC

[21] = target: mACh, muscarinic acetylcholine receptor; conditions: rat; cited from earlier work
[22] = target: α1-adrenoceptor; conditions: species for α1 not given; cited from earlier work
[23] = target: α2-adrenoceptor; conditions: species for α2 not stated; cited from earlier work
[24] = target: sigma, σ receptor; conditions: guinea-pig; cited from earlier work
[25] = target: H1 histamine receptor (Cavia porcellus, UniProt P31389); conditions: guinea-pig; cited from earlier work
[26] = target: D1 dopamine receptor (Homo sapiens, UniProt P21728); conditions: cited from earlier work
[27] = target: mACh, muscarinic acetylcholine receptor; conditions: human, expressed as KD; cited from earlier work
[28] = target: α1-adrenoceptor; conditions: human, expressed as KD; cited from earlier work
[29] = target: α2-adrenoceptor; conditions: human, expressed as KD; cited from earlier work
[30] = target: T7, 5-HT1A receptor (Rattus norvegicus, UniProt P19327); conditions: cited from earlier work
T7 sequence (P19327 1-422): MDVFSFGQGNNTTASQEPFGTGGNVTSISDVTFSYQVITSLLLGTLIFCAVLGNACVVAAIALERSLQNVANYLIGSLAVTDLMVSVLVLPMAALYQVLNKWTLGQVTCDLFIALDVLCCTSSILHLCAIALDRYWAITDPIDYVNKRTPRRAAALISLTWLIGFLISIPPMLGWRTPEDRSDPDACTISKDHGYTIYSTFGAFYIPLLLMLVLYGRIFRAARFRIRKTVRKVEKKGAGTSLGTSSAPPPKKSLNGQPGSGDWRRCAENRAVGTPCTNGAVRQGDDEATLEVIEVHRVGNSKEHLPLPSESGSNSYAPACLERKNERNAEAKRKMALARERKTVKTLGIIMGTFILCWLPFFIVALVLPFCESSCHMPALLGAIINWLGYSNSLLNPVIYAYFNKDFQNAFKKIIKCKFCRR

Chain of M3 muscarinic acetylcholine receptor (P20309 whole entry): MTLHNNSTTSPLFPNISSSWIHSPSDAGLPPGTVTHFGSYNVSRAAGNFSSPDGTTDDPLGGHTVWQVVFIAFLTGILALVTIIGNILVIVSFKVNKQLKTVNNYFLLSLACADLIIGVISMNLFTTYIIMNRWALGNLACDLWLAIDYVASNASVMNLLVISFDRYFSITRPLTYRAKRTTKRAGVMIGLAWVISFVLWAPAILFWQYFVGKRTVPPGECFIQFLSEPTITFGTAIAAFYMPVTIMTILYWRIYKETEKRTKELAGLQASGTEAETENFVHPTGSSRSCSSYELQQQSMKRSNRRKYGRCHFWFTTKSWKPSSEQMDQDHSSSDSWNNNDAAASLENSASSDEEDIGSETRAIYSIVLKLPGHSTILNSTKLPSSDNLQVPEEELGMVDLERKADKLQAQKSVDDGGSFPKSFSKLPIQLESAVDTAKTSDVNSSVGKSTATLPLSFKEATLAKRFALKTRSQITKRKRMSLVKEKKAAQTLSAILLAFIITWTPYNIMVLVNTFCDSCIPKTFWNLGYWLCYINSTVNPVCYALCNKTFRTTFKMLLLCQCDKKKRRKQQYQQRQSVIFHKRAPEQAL
Chain of 5-HT6 receptor (P31388 whole entry): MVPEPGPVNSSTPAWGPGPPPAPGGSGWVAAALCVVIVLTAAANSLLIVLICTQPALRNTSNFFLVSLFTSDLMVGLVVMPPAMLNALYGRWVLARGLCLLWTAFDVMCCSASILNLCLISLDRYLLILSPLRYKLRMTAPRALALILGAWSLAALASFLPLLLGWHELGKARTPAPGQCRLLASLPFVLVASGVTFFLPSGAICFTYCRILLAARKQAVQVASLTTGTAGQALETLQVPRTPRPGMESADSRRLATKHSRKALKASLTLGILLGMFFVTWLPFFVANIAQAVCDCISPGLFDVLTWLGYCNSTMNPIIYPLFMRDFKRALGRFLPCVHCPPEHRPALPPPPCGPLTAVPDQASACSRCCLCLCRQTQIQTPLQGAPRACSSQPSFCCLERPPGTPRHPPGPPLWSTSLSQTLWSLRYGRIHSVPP
Chain of 5-HT7 receptor (Rattus norvegicus, UniProt P32305) (P32305 whole entry): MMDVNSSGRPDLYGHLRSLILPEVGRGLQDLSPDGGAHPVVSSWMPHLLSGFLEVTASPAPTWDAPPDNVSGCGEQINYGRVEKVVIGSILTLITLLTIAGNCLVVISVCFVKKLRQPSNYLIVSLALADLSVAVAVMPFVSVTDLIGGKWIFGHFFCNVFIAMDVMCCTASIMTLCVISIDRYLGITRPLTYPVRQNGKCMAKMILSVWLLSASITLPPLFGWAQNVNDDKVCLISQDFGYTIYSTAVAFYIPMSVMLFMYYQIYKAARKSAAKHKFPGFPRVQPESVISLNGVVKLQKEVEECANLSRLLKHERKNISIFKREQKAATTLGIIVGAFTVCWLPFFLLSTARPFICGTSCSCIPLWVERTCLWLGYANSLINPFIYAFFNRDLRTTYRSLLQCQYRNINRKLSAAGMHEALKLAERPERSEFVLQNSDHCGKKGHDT
Chain of M2 muscarinic acetylcholine receptor (P08172 whole entry): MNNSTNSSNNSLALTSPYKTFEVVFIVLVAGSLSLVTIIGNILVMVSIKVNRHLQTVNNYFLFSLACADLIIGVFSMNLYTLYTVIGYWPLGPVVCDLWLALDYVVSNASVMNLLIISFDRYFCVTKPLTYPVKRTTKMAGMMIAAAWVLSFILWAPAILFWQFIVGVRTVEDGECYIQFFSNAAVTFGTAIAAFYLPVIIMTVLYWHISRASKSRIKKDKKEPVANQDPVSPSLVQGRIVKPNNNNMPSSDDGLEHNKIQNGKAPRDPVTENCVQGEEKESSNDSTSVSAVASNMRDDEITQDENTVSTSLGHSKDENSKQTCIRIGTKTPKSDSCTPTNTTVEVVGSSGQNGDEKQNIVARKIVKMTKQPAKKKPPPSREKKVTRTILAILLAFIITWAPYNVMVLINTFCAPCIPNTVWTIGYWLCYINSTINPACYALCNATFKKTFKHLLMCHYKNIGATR
Chain of D1 dopamine receptor (Rattus norvegicus, UniProt P18901) (P18901 whole entry): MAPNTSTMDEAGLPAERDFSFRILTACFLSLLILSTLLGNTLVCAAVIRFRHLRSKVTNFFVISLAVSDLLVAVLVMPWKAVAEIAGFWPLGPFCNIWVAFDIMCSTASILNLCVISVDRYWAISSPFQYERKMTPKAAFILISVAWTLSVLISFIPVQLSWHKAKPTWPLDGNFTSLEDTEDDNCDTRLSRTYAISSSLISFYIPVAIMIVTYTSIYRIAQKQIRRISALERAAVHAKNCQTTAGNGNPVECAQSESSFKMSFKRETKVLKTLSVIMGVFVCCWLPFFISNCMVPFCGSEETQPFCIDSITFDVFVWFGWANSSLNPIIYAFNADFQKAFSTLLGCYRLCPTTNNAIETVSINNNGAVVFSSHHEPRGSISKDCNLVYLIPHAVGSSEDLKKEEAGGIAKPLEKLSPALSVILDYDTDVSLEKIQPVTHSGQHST
Chain of H1 histamine receptor (P31389 whole entry): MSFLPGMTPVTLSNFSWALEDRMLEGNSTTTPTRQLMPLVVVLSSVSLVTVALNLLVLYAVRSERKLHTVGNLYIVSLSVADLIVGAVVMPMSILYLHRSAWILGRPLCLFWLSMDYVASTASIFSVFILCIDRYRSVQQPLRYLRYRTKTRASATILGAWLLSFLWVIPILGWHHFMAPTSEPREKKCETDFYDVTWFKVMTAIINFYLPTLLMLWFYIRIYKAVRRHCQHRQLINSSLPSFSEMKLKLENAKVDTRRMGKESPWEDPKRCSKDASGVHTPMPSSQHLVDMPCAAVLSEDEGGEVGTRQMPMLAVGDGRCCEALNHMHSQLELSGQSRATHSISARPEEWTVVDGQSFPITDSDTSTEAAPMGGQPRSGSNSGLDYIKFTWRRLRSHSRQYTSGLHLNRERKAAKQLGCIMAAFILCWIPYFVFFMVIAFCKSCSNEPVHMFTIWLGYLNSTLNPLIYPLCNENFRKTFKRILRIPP
Chain of M1 muscarinic acetylcholine receptor (P11229 whole entry): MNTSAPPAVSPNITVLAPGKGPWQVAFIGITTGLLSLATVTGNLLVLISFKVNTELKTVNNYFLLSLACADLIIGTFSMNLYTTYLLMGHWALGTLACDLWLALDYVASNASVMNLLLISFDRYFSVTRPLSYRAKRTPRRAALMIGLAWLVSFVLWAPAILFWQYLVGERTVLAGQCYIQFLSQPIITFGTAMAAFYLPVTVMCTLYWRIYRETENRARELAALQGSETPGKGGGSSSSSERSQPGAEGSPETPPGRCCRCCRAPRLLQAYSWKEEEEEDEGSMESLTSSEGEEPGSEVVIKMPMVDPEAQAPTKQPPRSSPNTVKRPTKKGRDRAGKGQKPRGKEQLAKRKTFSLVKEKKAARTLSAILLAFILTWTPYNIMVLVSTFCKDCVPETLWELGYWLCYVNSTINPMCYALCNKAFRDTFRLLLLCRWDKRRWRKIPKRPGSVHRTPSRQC
Chain of 5-HT7 receptor (Mus musculus, UniProt P32304) (P32304 whole entry): as the sequence (P32305 whole entry) above, with G27R, P39S, L53P, P279S, S438C counted along it
Chain of D1 dopamine receptor (Homo sapiens, UniProt P21728) (P21728 whole entry): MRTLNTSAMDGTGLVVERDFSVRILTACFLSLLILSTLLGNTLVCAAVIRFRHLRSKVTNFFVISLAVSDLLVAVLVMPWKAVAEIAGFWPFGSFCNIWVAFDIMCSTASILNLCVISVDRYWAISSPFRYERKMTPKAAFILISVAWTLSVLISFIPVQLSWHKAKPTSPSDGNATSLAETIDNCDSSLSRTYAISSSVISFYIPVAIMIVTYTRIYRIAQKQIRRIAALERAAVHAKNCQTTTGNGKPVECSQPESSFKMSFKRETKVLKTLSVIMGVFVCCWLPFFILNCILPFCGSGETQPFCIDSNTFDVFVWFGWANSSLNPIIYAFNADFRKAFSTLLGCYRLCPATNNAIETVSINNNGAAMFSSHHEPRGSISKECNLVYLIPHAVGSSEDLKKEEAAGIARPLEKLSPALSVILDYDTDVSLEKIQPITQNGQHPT
Chain of D2-L (long form of D2 receptor) (P14416 whole entry): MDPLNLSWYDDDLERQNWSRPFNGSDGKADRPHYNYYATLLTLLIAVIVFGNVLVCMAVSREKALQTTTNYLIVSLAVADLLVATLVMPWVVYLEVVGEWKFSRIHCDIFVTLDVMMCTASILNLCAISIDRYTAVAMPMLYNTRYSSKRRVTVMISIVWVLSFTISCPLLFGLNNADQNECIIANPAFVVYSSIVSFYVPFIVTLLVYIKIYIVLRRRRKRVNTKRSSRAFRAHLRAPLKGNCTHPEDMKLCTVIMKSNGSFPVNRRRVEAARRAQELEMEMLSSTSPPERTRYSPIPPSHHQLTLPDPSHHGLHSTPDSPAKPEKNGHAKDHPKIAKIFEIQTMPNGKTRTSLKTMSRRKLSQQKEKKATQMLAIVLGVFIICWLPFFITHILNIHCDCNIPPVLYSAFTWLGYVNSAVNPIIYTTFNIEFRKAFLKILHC
Chain of 5-HT1A receptor (Homo sapiens, UniProt P08908) (P08908 whole entry): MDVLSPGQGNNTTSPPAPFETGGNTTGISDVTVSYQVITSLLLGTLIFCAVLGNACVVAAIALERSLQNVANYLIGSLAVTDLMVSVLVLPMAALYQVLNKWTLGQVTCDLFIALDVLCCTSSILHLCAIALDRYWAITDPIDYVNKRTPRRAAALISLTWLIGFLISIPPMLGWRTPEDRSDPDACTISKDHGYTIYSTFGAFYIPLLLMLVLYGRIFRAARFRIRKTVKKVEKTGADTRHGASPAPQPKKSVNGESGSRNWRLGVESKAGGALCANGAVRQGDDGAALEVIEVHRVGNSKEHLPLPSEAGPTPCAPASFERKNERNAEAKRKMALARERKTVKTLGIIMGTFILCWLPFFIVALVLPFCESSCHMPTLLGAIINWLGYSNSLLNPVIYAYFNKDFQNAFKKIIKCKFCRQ

Row | Compound | (2C/2A) + (2C/D2) [13] | 5-HT6 affinity value (−logKi) [4] | 5-HT7 affinity value (−logKi) [5] | D1 affinity value (−logKi) [6] | D4 affinity value (−logKi) [7] | M2 affinity value (−log KD) [8] | M3 affinity value (−log KD) [9] | M4 affinity value (−log KD) [10] | M5 affinity value (−log KD) [11] | M1 affinity value (−log KD) [12] | 5-HT2C affinity value (−logKi) [15] | D4 affinity value (−logKi) [20] | mACh affinity value (−logKi) [21] | α1 affinity value (−logKi) [22] | sigma affinity value (−logKi) [24] | H1 affinity value (−logKi) [25] | also measured
1 | CN1CCN(C2=Nc3ccccc3Oc3ccc(Cl)cc32)CC1 [Loxapine] | – | – | – | 7.5^18 | 7.9^4 | – | 6.4^15 | 6.5^15 | 6.6^15 | 7.2^15 | – | – | – | – | – | – | 5-HT1A affinity value (−logKi) [14]: 5.5^5
2 | NC(=O)C1(N2CCCCC2)CCN(CCCC(=O)c2ccc(F)cc2)CC1 [Pipamperone] | 1.83 | – | – | – | – | – | – | – | – | – | 6.9^6 | 8.3^6 | <5.3^6 | 7.2^6 | 7.3^6 | <5.3^6 | 5-HT3 affinity value (−logKi) [16]: <5.3^6; 5-HT7 affinity value (−logKi) [17]: 6.8^6; D2-S affinity value (−logKi) [18]: 7.0^6; D2-L affinity value (−logKi) [19]: 6.9^6; α2 affinity value (−logKi) [23]: 6.2^6
3 | CN(C)CCOC1=Cc2ccccc2Sc2ccc(Cl)cc21 [Zotepine] | 2.02 | 9.0^2 | 8.8^2 | – | 8.2^4 | – | – | 7.1^15 | 6.6^15 | – | 8.5^6 | 7.4^6 | 6.3^6 | 8.5^6 | 6.3^6 | 8.5^6 | 5-HT1A affinity value (−logKi) [30]: 6.5^6

Continued, in another order:

Row | (2C/2A) + (2C/D2) [13] | Compound | 5-HT6 affinity value (−logKi) [4] | 5-HT7 affinity value (−logKi) [5] | D1 affinity value (−logKi) [6] | D4 affinity value (−logKi) [7] | M2 affinity value (−log KD) [8] | M3 affinity value (−log KD) [9] | M4 affinity value (−log KD) [10] | M5 affinity value (−log KD) [11] | M1 affinity value (−log KD) [12] | 5-HT2C affinity value (−logKi) [15] | D4 affinity value (−logKi) [20] | mACh affinity value (−logKi) [21] | α1 affinity value (−logKi) [22] | sigma affinity value (−logKi) [24] | H1 affinity value (−logKi) [25] | also measured
4 | 2.13 | CN1CCN(C2=Nc3cc(F)ccc3Cc3ccccc32)CC1 [Fluperlapine] | 7.8^2 | 8.3^2 | 6.8^8 | 6.9^4 | 7.1^15 | 7.4^15 | 7.9^15 | 7.7^15 | 8.1^15 | – | – | – | – | – | – | 5-HT2A/D2 [1]: 1.25; 5-HT2C/5-HT2A (2C/2A) [2]: 0.95; 5-HT2C/D2 (2C/D2) [3]: 1.18
5 | 1.43 | CN1CCN(CC/C=C2/c3ccccc3Sc3ccc(S(=O)(=O)N(C)C)cc32)CC1 [Thiothixene] | 7.4^2 | 7.9^2 | – | 7.1^4 | 5.7^15 | 5.8^15 | 5.8^15 | 5.4^15 | – | – | – | – | – | – | – | D1 affinity value (−logKi) [26]: 6.5^9; mACh affinity value (−log KD) [27]: 5.5^16; α1 affinity value (−log KD) [28]: 8.0^16; α2 affinity value (−log KD) [29]: 6.7^16
